Tests used:
Experiment in all cases: relative viability (nuclei count vs DMSO), 5 days (fraction); higher = more cells survive
[1] = compound: O=c1ncccn1[C@@H]1O[C@H](CO)[C@@H](O)[C@H]1O [Zebularine] + CC(=O)c1c(C)c2cnc(Nc3ccc(N4CCNCC4)cn3)nc2n(C2CCCC2)c1=O [Palbociclib] (partner 0.5 µM)
In short: (§1)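 Lung cancer cell lines in 1536-well plates were dosed by pin tool the day after seeding, either with one drug alone or with a fixed anchor-drug dose plus five library-drug doses (not always all listed) in √10 steps. After 5 days, cells were fixed and their nuclei stained in one step (final 0.05% Triton X-100, 1% formaldehyde, 1 ug/ml Hoechst), then counted on 4× images. Relative viability is the nuclei count in treated wells divided by that in vehicle wells. Values are medians of duplicate plates.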

[2] = compound: CC(C)CCN1c2nc(Nc3cc(F)c(O)c(F)c3)ncc2N(C)C(=O)C1C [BI-D1870] + C[C@@H](Oc1cc(-c2cnn(C3CCNCC3)c2)cnc1N)c1c(Cl)ccc(F)c1Cl [Crizotinib] (partner 1 µM)
In short: as §1

[3] = compound: CC(C)CCN1c2nc(Nc3cc(F)c(O)c(F)c3)ncc2N(C)C(=O)C1C [BI-D1870] + C[C@]1(O)C[C@@H](c2nc(-c3ccc4ccc(-c5ccccc5)nc4c3)c3c(N)nccn32)C1 [Linsitinib] (partner 1 µM)
In short: as §1

[4] = compound: O=c1ncccn1[C@@H]1O[C@H](CO)[C@@H](O)[C@H]1O [Zebularine] + Nc1ncn([C@H]2C[C@H](O)[C@@H](CO)O2)c(=O)n1 [Decitabine] (partner 2 µM)
In short: as §1

Cell Line	relative viability ([1]; first compound 1 µM)	relative viability ([1]; first compound 3.162 µM)	relative viability ([1]; first compound 10 µM)	relative viability ([1]; first compound 31.62 µM)	relative viability ([1]; first compound 100 µM)	relative viability ([2]; first compound 0.04 µM)	relative viability ([2]; first compound 0.1265 µM)	relative viability ([2]; first compound 0.4 µM)	relative viability ([2]; first compound 1.265 µM)	relative viability ([2]; first compound 4 µM)	relative viability ([3]; first compound 0.04 µM)	relative viability ([3]; first compound 0.1265 µM)	relative viability ([3]; first compound 0.4 µM)	relative viability ([3]; first compound 1.265 µM)	relative viability ([3]; first compound 4 µM)	relative viability ([4]; first compound 1 µM)	relative viability ([4]; first compound 3.162 µM)	relative viability ([4]; first compound 10 µM)	relative viability ([4]; first compound 31.62 µM)	relative viability ([4]; first compound 100 µM)
201T	0.406	0.355	0.325	0.411	0.39	1.02	1.02	1.04	1.07	1.03	1.05	1.09	1.06	1.04	1.07	0.872	0.883	0.76	0.894	0.844
A549						0.873	0.708	0.76	0.618	0.158	0.703	0.57	0.588	0.649	0.573	0.219	0.251		0.267	0.185
A-427	0.581	0.542	0.472	0.385	0.296	0.992	0.86	0.825	1.11	0.857	1.14	1.1	1.13	1.17	1.17	0.693	0.534	0.524	0.455	0.302
ABC-1	0.741	0.485	0.635	0.589	0.471	1.19	0.49	1.12	0.988	0.591	0.857	0.835	0.718	0.946	0.782	1.13	0.68	0.888	0.577	0.495
BEN	0.451	0.473	0.451	0.422	0.368	1.12	0.722	1.01	0.99	0.822	0.956	0.859	0.914	1.01	0.961	0.821	0.686	0.545	0.495	0.371
CAL-12T	0.474	0.423	0.409	0.557	0.353	0.598	0.53	0.662	0.506	0.283	0.935	0.559	0.749	0.79	0.704					
COR-L23	0.314	0.286	0.176	0.224	0.146	0.703	0.639	0.692	0.72	0.544	0.896	0.927	0.92	0.996	0.536	0.407	0.368	0.408	0.363	0.202
COR-L 105	0.515	0.373	0.416	0.406	0.43	0.858	0.79	0.777	0.754	0.574	1.11	0.813	0.926	0.856	0.666	0.642	0.696	0.523	0.648	0.647
Calu-6						0.883	0.741	0.886	0.597	0.629	1.04	0.896	0.889	0.884	0.744					
ChaGo-K-1	0.919	0.737	0.345	0.198	0.217	1.19	1.09	1.08	1.06	0.994						0.534	0.566	0.432	0.232	0.199
EBC-1						0.16	0.182	0.209	0.188	0.134	1.17	0.616	0.75	0.582	0.682					
EKVX	0.692	0.398		0.343	0.413	0.929	0.986	0.92	0.941	0.816	1.14	0.933	1	1.05	0.893	0.576	0.378		0.304	0.339
EMC-BAC-2	0.545	0.507	0.431	0.6	0.539	0.847	0.739	0.726	0.853	0.835	0.864	0.748	0.792	0.802	0.799	1.03	1	0.772	1.03	1.01
EPLC-272H	0.375		0.326	0.324	0.344	0.926	0.86	0.904	0.972	0.931	1.22	1.15	1.34	1.22	1.14	0.404		0.398	0.364	0.371
H3255	0.3	0.288	0.336	0.314	0.321	0.831	0.924	0.862	0.987	0.981	0.94	0.959	0.935	1.1	0.907	0.687	0.615		0.65	0.665
HARA	0.242	0.279		0.292	0.235	1.15	0.941	0.994	1.24	0.922	1.1	0.897	1.03	1.09	0.873	0.595	0.603	0.433	0.554	0.459
HCC-15	0.887	0.757	0.521	0.506	0.3	0.919	0.733	0.74	0.81	0.594	0.89	0.751	0.772	0.92	0.713	0.683	0.575	0.36	0.684	0.487
HCC-44	0.945	0.998	1.07	1.16	0.5	0.921	0.798	0.771	0.851	0.829	0.718	0.667	0.679	0.712	0.634	0.981	0.929	0.946	1.03	0.585
HCC-78	0.577	0.465	0.34	0.472	0.449	0.365	0.318	0.309	0.295	0.245	0.54	0.547	0.492	0.533	0.406	0.732	0.643		0.663	0.449
HCC-366	0.367	0.387	0.246	0.23	0.108	0.694	0.485	0.471	0.933	0.378	0.919	0.538	0.53	0.763	0.623	0.412	0.336	0.274	0.389	0.108

Cell Line	relative viability ([1]; first compound 1 µM)	relative viability ([1]; first compound 3.162 µM)	relative viability ([1]; first compound 10 µM)	relative viability ([1]; first compound 31.62 µM)	relative viability ([1]; first compound 100 µM)	relative viability ([2]; first compound 0.04 µM)	relative viability ([2]; first compound 0.1265 µM)	relative viability ([2]; first compound 0.4 µM)	relative viability ([2]; first compound 1.265 µM)	relative viability ([2]; first compound 4 µM)	relative viability ([3]; first compound 0.04 µM)	relative viability ([3]; first compound 0.1265 µM)	relative viability ([3]; first compound 0.4 µM)	relative viability ([3]; first compound 1.265 µM)	relative viability ([3]; first compound 4 µM)	relative viability ([4]; first compound 1 µM)	relative viability ([4]; first compound 3.162 µM)	relative viability ([4]; first compound 10 µM)	relative viability ([4]; first compound 31.62 µM)	relative viability ([4]; first compound 100 µM)
HCC-827	0.555	0.551	0.424	0.485	0.339	0.97	0.912	0.95	0.947	0.821	0.992	0.959	0.982	0.977	0.895	0.42	0.353	0.259	0.259	0.346
HOP-62	0.496	0.437	0.218	0.158	0.152	1.08	0.986	0.963	1.01	0.915	1.25	0.997	1.13	1.04	0.91	0.205	0.205	0.209	0.164	0.178
IA-LM						1.19	0.942	0.845	0.569	0.176	0.824	0.229	0.733	0.983	0.604					
LC-2-ad	0.496	0.507	0.322	0.408	0.301	0.51	0.454	0.394	0.544	0.434	0.874	0.821	0.778	0.722	0.522	0.83	0.796	0.554	0.72	0.329
LCLC-97TM1	0.2	0.199	0.0967	0.102	0.111	0.361	0.361	0.36	0.57	0.312	0.238	0.158	0.19	0.244	0.193	0.211	0.202	0.183	0.176	0.117
LCLC-103H	0.49	0.45	0.482	0.505	0.473	1.18	0.889	0.868	1.1	1.03	1.17	1.02	1.05	1.36	1.06	0.801	0.727	0.713	0.719	0.666
LK-2	0.874	0.797	0.424	0.28	0.204	0.187	0.233	0.232	0.274	0.264	0.616	0.518	0.512	0.497	0.457	0.34	0.338	0.274	0.288	0.194
NCI-H522	0.923	0.942	0.926	0.827	0.765											0.621	0.577	0.641	0.61	0.639
NCI-H596						0.97	0.982	0.981	1.01	1.16	1.13	1.07	1.05	1.17	1.07	0.84	1.07	0.894	1.06	0.98
NCI-H1299						0.971	0.902	0.965	0.885	0.814	1.04	0.909	0.995	1.02	0.933					
NCI-H1395	0.664	0.659	0.621	0.512	0.518						1.11	0.922	1.14	1.2	0.85	0.678	0.755	0.82	0.709	0.623
NCI-H1563						0.878	0.893	0.842	0.905	0.905	1.4	1.1	1.13	1.07	1.19					
NCI-H1648	0.316	0.226	0.301	0.25	0.24											0.456	0.478	0.368	0.487	0.438
NCI-H1650	0.349	0.359	0.311	0.504	0.285	0.984	0.905	0.936	0.777	0.801						0.347	0.305	0.335	0.378	0.269
NCI-H1703						1.16	0.613	0.467	0.756	0.356		0.405	0.635	0.772	0.728					
NCI-H1793	0.364	0.309	0.214	0.186	0.221						0.824	0.578	0.794	0.84	0.932	0.471	0.523	0.292	0.328	0.218
NCI-H2170	0.415	0.351	0.366	0.404	0.283	1.31	1.06	1.24	1.24	1.06						0.48	0.423	0.426	0.505	0.349
NCI-H2228	0.861	0.637		0.552	0.216	0.645	0.479	0.374	0.435	0.329	0.78	0.568	0.953	0.529	0.388					
NCI-H2342	0.508	0.498	0.5	0.526	0.47											0.744	0.749	0.699	0.815	0.696
SW 900	0.503	0.484		0.669	0.527											0.512	0.4		0.43	0.432

— the supplement of paper PMC10307832
